Measurements published in ChEMBL document CHEMBL1134052, “A new C-nucleoside analogue of tiazofurin: synthesis and biological evaluation of 2-beta-D-ribofuranosylimidazole-4-carboxamide (imidazofurin)” (Bioorg Med Chem Lett, 2001).

Tests used:
[1] = system: K562; test: Ability to inhibit the growth of human myelogenous leukemia K562 cells; assay type: functional, cell-based
[2] = system: K562; test: Ability to inhibit the growth of human myelogenous leukemia K562 cells at 100 uM; no growth; assay type: functional, cell-based

| IC50 [1] [µM] | SMILES | Activity [2] |
| --- | --- | --- |
| 4.6 | NC(=O)c1csc([C@@H]2O[C@H](CO)[C@@H](O)[C@H]2O)c1 |  |
|  | NC(=O)c1c[nH]c([C@@H]2O[C@H](CO)[C@@H](O)[C@H]2O)n1 | no growth |
